# Earlier results as cited in paper PMC4405790 (Pharmaceutical research, 2012).
# Entries after “also recorded” stand apart in the source; their conditions may differ.
# Tests used:
# [1] = test system: HIV
# [2] = aqueous
smiles,measurement,setting,value
"Cc1cc(C)cc(C(=O)c2c(C(C)C)c(=O)[nH]c(=O)n2CC2CC2)c1 [IQP-0528, 1-(3-Cyclopropyl)methyl-6-(3,5-dimethylbenzoyl)-5-isopropyl-2,4(1H,3H)-pyrimidinedione]",activity against laboratory strains of virus,[1],nanomolar
same,activity against representative clinical strains of HIV,[1],nanomolar to subnanomolar
same,level of activity as a NNRTI,[1]; cell-based in vitro assays,subnanomolar
same,level of activity as inhibitor of a step in virus entry,[1]; cell-based in vitro assays,nanomolar
same,solubility,[2],low solubility; also recorded: very low solubility
